From patent US20210130291A1, “METHODS FOR TREATING DIABETES USING VDAC1 INHIBITORS” (THE NATIONAL INSTITUTE FOR BIOTECHNOLOGY IN THE NEGEV LTD., priority 2016, published 2021) come the findings set out here.

In test [1] the test system is VDAC1 expression in INS-1 cells. Kind of test: VDAC1 expression in INS-1 cells cultured at 5 or 20 mM glucose. It counts as cell-based, rat. The protocol:
INS-1 832/13 cells (kindly donated by Dr. C. B. Newgaard, Duke University, USA) were cultured in RPMI-1640 containing 11.1 mM D-glucose and supplemented with 10% fetal bovine serum, 100 U/ml penicillin (Gibco), 100 µg/ml streptomycin (Gibco), 10 mM HEPES, 2 mM glutamine, 1 mM sodium pyruvate, and 50 µM β-mercaptoethanol (Sigma), at 37° C. in a humidified atmosphere containing 95% air and 5% CO2. For VDAC1 over-expression by VDAC1 plasmid (1 μg/ml) and VDAC2 down-regulation by and siRNA, INS1 832/13 cells were cultured to 60% confluence. To study the long-term effects (24-72 h) of high glucose (20 mM) (glucotoxicity) compared to basal glucose (5 mM), INS-1 832/13 cells were cultured with RPMI 1640 complete media (Ahmed, M., et al., 2010. Islets 2, 283-292) in the presence or absence of indicated agents and thereafter VDAC1 expression, cell viability and function was measured.
Total RNA from handpicked mouse islets, human donor islets (Diabetic and non-diabetic) or INS1 832/13 cells were extracted using RNAeasy (Qiagen, Hilden, Germany). RNA ([…]) was used for cDNA synthesis with SuperScript (Invitrogen, Carlsbad, Calif., USA). Concentration and purity of total RNA was measured with a NanoDrop ND-1000 spectrophotometer (A260/A280>1.9 and A260/A230>1.4) (NanoDrop Technologies, Wilmington, Del.) and RNA Quality Indicator (RQI) higher than 8.0 (Experion Automated Electrophoresis, Bio-Rad, USA) was considered to be high-quality total RNA preparations. A 10 μl of reaction mixture with 20 ng cDNA, 5 μl TaqMan mastermix (Applied Biosystems, Foster City, Calif., USA), and 100 nM TagMan gene expression assay were run in a 7900HT Fast Real-Time System (Applied Biosystems). The qPCR was carried out as follows: 50° C. for 2 minutes, 95° C. for 10 minutes, 40 cycles of 95° C. for 15 seconds, and 60° C. for 1 minute. The amount of mRNA was calculated relative to the amount of housekeeping genes (GAPDH, PPIA or HPRT) mRNA in the same sample by the formula X0/R0=2CtR-CtX, where X0 is the original amount of mRNA for the gene of interest, R0 is the original amount of HPRT mRNA, CtR the Ct value for HPRT, and CtX the Ct value for the gene of interest. Primer sequences are provided upon request.

In test [2] the target is T1, plasma membrane targeted VDAC1 (plVDAC1) (Mus musculus, UniProt Q60932).
T1 construct: expressed in transfected cells; host or cells: INS-1 832/13 cells (rat insulinoma), transient transfection; plasmid a gift from Dr. R. Buettner
Kind of test: ATP release and ATP content of INS-1 cells transfected with plasma membrane targeted VDAC1. It is filed as cell-based. As to conditions: for ATP release: racemate and enantiomers (FIG. 9a). The protocol: (§1) ATP release from isolated mouse or human islets or from INS-1 cells after transfection with mitochondrial targeted VDAC1 (mtVDAC1) or plasma membrane targeted VDAC1 (plVDAC1) plasmids was determined using a luminometric assay kit according to manufacturer's recommendation (Biovision). After incubation of islets (50/vial) or INS-1 cells for 60 min, an aliquot of the media was removed for subsequent measurements of released ATP. Then the islets or INS-1 cells were washed 3 times and the lysates were used for measurements of ATP and protein contents followed the protocol provided by the vendor.
INS-1 cells were transiently transfected with a plasmid encoding plasma membrane targeted VDAC1 (pVDAC1) as described in the Material and Method section herein above and in Example 3 (see also Buettner et al 2000. PNAS 97:3201-3206). After transfection (24-32 h and 2-4 h recovery in normal culture medium, RPMI 1640 with complete supplement) the INS-1 cells were washed followed by preincubation in SAB-buffer (See Material and Method above) containing 2.8 mM glucose. The final 1 h incubation was performed in SAB-buffer containing 1 mM glucose and the VDAC1 inhibitory compounds to be tested. At the end, the cells were lysed using lysis buffer, sonicated and the lysate as well as the incubation medium were analyzed for ATP content using a commercially available kit (Biovision, K354-100). Cellular protein content was analyzed by Pierce™ BCA protein assay kit (Thermo Scientific, USA).

For test [3], the system named is islets of C57/BL mice. Briefly: ATP content and GSIS in islets of control C57/BL mice. It is filed as cell-based, mouse. As to conditions: VDAC1 antibody 10 nM. As to the method:
5 weeks old db/db mice and control (C57/bl) (Janvier Laboratory, France), weighing 18-25 g, were used throughout the experiments. They were given a standard pellet diet (B&K) and tap water ad libitum. The experimental procedures were approved by the Ethics Committee for Animal Research at Lund University. Isolation of pancreatic islets was performed by retrograde injection of a collagenase solution via the bile-pancreatic duct and islets were then collected under a stereomicroscope at room temperature.
(§2) Human pancreatic islets were collected under a stereomicroscope at room temperature and cultured at 5.5 or 20 mM glucose in the absence or presence of test agents for 72 h. Thereafter the islets were washed and preincubated for 30 min at 37° C. in Krebs Ringer bicarbonate buffer, pH 7.4, supplemented with N-2 hydroxyethylpiperazine-N′-2-ethanesulfonic acid (10 mM), 0.1% bovine serum albumin, and 1 mM glucose. Each incubation vial contained 12 islets in 1.0 ml KRB buffer solution and treated with 95% O2 and 5% CO2 to obtain constant pH and oxygenation. After preincubation, the buffer was changed to a medium containing either 1 mM or 16.7 mM glucose. The islets were then incubated for 1 h at 37° C. in a metabolic shaker (30 cycles per min). Immediately after incubation an aliquot of the medium was removed for analysis of insulin and the islets were incubated in acid-ethanol for insulin content determination by radioimmunoassay.
as §1

For test [4], the system named is islets from T2D donors. Kind of test: ATP content and GSIS in islets from T2D donors, acute addition of VDAC1 inhibitors. It is filed as cell-based, human.
Source text: Human pancreatic islets were obtained through collaboration between Human Tissue Laboratory within Lund University Diabetes Centre (LUDC) and the Nordic Network for Clinical Islet Transplantation (Prof. Olle Korsgren, Uppsala University, Sweden). Donors were grouped according to HbA1c i.e. less than 6% (ND), between 6% and 6.5% (IGT), higher than 6.5% or history of diabetes (T2D). The human islets (70-90% purity) had been cultured in CMRL 1066 (ICN Biomedicals, Costa Mesa, Calif.) supplemented with 10 mM HEPES, 2 mM L-glutamine, […] gentamicin, […] fungizone (Gibco, BRL, Gaithersburg, Md.), 20 μg/ml ciprofloxacin (Bayer Healthcare, Leverkusen, Germany) and 10 mM nicotinamide at 37° C. (5% CO2) for 1 to 5 days prior to the arrival in the laboratory. The islets were then hand-picked under stereomicroscope prior to use. All procedures using human islets were approved by the ethical committees at Uppsala and Lund Universities, Sweden.
as §2, §1

The mark [5] stands for this setting: plVDAC1-transfected INS-1 cells, 1 h at 1 mM glucose.

“Also recorded” adds a separate entry of the source.

T1 sequence (Q60932 whole entry): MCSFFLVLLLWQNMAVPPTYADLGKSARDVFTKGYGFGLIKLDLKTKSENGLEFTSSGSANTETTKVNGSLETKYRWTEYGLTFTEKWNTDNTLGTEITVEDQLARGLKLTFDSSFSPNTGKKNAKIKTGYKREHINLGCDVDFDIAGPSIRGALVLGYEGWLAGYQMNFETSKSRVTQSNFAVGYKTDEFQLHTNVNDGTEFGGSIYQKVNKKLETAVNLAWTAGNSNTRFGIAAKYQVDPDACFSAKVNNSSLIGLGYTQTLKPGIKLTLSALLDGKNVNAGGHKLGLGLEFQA

For `O=CC[C@@H](O)[C@H](O)[C@H](O)CO` [2-deoxyglucose, reference compound], in test [1] (INS-1 cells, 2-deoxyglucose, data not shown), the VDAC1 expression result was “increased VDAC1 expression”.

Take `O=C1CC(N2CCC(Nc3ccc(OC(F)(F)F)cc3)CC2)C(=O)N1c1ccc(Cl)cc1` (centres unmarked) [AKOS, 1-(4-Chloro-phenyl)-3-[4-(4-trifluoromethoxy-phenylamino)-piperidin-1-yl]-pyrrolidine-2,5-dione]: the “ATP release (loss of cellular ATP)” value in test [2] (plVDAC1-transfected INS-1 cells, 1 h at 1 mM glucose, VDAC1-ab 10 nM, metformin, AKOS, VBIT-4 20 μM each (FIG. 4c)) is on record as “prevented; also recorded: rapidly inhibited”. In addition, the GSIS result in test [3] (others 20 μM (FIG. 7e)) is listed as “do not affect”; in test [4] (T2D islets, acute addition 1 h (FIG. 6f)), “increased in parallel with the improved ATP generation”. For the same molecule, in test [3] (others 20 μM (FIG. 7d)), the ATP content entry was “do not affect”. Further, in test [4] (islets from 5 T2D donors and one IGT donor, 1 h, at 1 and 16.7 mM glucose (FIG. 6e)), the “islet ATP content” value is recorded as “increased islet ATP content”. Moreover, in test [1] (INS-1 cells cultured 72 h at 20 mM glucose, VDAC1ab 10 nM, metformin, AKOS, VBIT-4 20 μM each (FIG. 4l, 4m)), the “glucose evoked VDAC1 upregulation (total VDAC1 expression)” value is “abrogated the glucose evoked VDAC1 upregulation”.

For the molecule `CC1(C)C(=O)N([C@H]2CCc3c(O)cccc32)c2nc(Nc3cccc(CN4CCCC4)c3)ncc21` [MRT199665, reference compound], the “effect of AMPK inhibitor on metformin-inhibited ATP release” value in test [2] (plVDAC1 transfected INS-1 cells, MRT199665 5 μM with metformin (FIG. 4i)) was “neither attenuated”.

As for `O=C(CC(CO)N1CCN(c2ccc(OC(F)(F)F)cc2)CC1)Nc1ccc(Cl)cc1` (centres unmarked) [VBIT-4-1], in test [2] (setting [5]), the ATP release result is on record as “efficiently inhibit ATP release”. Besides, in test [2] (plVDAC1-transfected INS-1 cells, 1 h at 1 mM glucose, racemate and enantiomers (FIG. 9b)), the “cellular ATP content” value is “increase cellular ATP content”.

For the molecule `O=C(CC(CO)N1CCN(c2ccc(OC(F)(F)F)cc2)CC1)Nc1ccc(Cl)cc1` (centres unmarked) [VBIT-4-2], the ATP release entry in test [2] (setting [5]) was “efficiently inhibit ATP release”.
